This passage reports Emax and EC50 results from patent US20240217966A1, “PHARMACEUTICAL COMPOSITION CONTAINING GLP-1 RECEPTOR AGONIST HAVING FUSED RING” (Shionogi & Co., Ltd., priority 2021, published 2024).

This assay concerns the target T1, Human GLP-1 receptor (Homo sapiens, UniProt P43220).
T1 construct: expressed in transfected cells
Description: Measurement of GLP-1 receptor agonist activity (cAMP assay). The assay is classed as cell-based. To be noted: for Emax: CHO-K1, hGLP-1R/CHO-K1 cells, cAMP, 100% = human GLP-1 (7-36) at 2 nM, 0% = DMSO only, read-out: Emax(%); for EC50: hGLP-1R/CHO-K1 cells, cAMP increase, 37° C. 1 hour. How it is done:
Test Example 1: (Measurement of GLP-1 Receptor Agonist Activity)
Human GLP-1 receptor stably expressing cells (hGLP-1R/CHO-K1 cells) are cultured in an α-MEM medium (Sigma) containing 10% FBS (Hyclone), 2% GlutaMAX (Gibco), 1% G418 (Nacalai Tesque), and 1% Penicillin-Streptomycin Mixed Solution (Sigma) at 37° C. under 5% CO2 conditions, and recovered by treating a 10 fold diluted 5.0 g/l-trypsin/5.3 mmol/l-EDTA solution (Nacalai Tesque) and cryopreserved.
A DMSO solution containing the compound of the present invention or human GLP-1 (7-36) (Phoenix Pharmaceuticals) is dispensed into a 384-well microplate (Greiner) at 62.5 nL/well, and in addition, 400 μM Forskolin (Nacalai Tesque) is dispensed therein at 7.5 nL/well. Subsequently, the frozen GLP-1 R/CHO-K1 cells are thawed in a thermostatic bath at 37° C., suspended in HBSS buffer (GIBCO) containing 0.1% BSA (Sigma), 20 mM HEPES (GIBCO), 0.1 mM IBMX (Sigma), and 0.2 mM RO20-1724 (Calbiochem) at 2×10^4 cells/mL, and the cell suspension is added at 6 μL/well. The solution was incubated at 37° C. for 1 hour and intracellular cAMP concentration is measured using cAMP Gs dynamic kit (Cisbio) according to the protocol attached to the product. Specifically, cAMP-d2 and Anti-cAMP-Cryptate are each added in an amount of 3 μL/well, the mixture is incubated at room temperature for 1 hour, and time-resolved fluorescence is measured using PHERAstar (BMG Labtech).
The dilution concentration or the dilution solvent are changed as necessary.
The compounds of the present invention were tested essentially as described above.

T1 sequence (P43220 24-463): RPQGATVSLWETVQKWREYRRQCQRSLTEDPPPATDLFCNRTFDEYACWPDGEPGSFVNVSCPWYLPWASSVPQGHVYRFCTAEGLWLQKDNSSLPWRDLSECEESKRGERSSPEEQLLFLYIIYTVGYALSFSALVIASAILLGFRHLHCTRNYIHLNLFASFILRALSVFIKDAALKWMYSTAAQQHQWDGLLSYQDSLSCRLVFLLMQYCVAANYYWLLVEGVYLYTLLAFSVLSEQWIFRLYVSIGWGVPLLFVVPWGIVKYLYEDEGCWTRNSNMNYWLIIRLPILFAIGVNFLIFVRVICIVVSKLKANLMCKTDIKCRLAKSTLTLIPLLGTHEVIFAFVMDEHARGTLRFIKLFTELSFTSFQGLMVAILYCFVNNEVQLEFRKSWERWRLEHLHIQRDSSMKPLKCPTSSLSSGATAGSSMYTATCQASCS

As for `O=C(O)c1ccc2nc(Cc3ccc4nc(C(F)(F)F)c(OCc5ccc(Cl)cc5F)nc4c3)n(C[C@@H]3CCO3)c2c1` [Compound I-076], the maximal response (Emax) was found to be 108% and a half-maximal effect (EC50) was put at 1.59 nM.

As to `O=C(O)c1ccc2nc(CN3CCc4cc(C(F)(F)F)c(OCc5ccc(Cl)cc5F)cc4C3)n(C[C@@H]3CCO3)c2c1Cl` [Compound I-078], the maximal effect (Emax) stood at 112% and the EC50 amounted to 28.6 nM.

`O=C(O)c1ccc2nc(CN3CCc4cc(C(F)(F)F)c(OCc5ccc(F)cc5)cc4C3)n(C[C@@H]3CCO3)c2c1` [Compound I-079]: the maximal effect (Emax) amounted to 103% and the 50% effective concentration (EC50) came out at 6.8 nM.

In the case of `O=C(O)c1ccc2nc(CN3CCc4cc(C(F)(F)F)c(OCc5ccc(Cl)cc5)cc4C3)n(C[C@@H]3CCO3)c2c1` [Compound I-080], the Emax was 103% and a half-maximal effect (EC50) was put at 3.89 nM.

`O=C(O)c1ccc2nc(CN3CCc4cc(C(F)(F)F)c(OCc5ccc(C(F)F)cc5)cc4C3)n(C[C@@H]3CCO3)c2c1` [Compound I-081]: the maximum response (Emax) stood at 101% and the concentration for a half-maximal effect (EC50) was 7.66 nM.

For the compound `O=C(O)c1ccc2nc(CN3CCc4cc(C(F)(F)F)c(OCc5ccc(OC(F)F)cc5)cc4C3)n(C[C@@H]3CCO3)c2c1` [Compound I-082], the Emax turned out to be 103% and the EC50 turned out to be 2.32 nM.

Regarding `O=C(O)c1ccc2nc(CN3CCc4cc(C(F)(F)F)c(OCc5ccc(C(F)(F)F)cc5)cc4C3)n(C[C@@H]3CCO3)c2c1` [Compound I-083], the Emax was 93% and the EC50 is 21.4 nM.

Turning to `O=C(O)c1ccc2nc(CN3CCc4cc(C(F)(F)F)c(OCc5ccc(OC(F)(F)F)cc5)cc4C3)n(C[C@@H]3CCO3)c2c1` [Compound I-084], the maximum response (Emax) was found to be 106% and the half-maximal effective concentration (EC50) came to 91.9 nM.

`Cc1ccc(COc2cc3c(cc2C(F)(F)F)CCN(Cc2nc4ccc(C(=O)O)cc4n2C[C@@H]2CCO2)C3)cc1` [Compound I-085]: the maximal response (Emax) turned out to be 111% and the half-maximal effective concentration (EC50) turned out to be 4.47 nM.

`CS(=O)(=O)c1ccc(COc2cc3c(cc2C(F)(F)F)CCN(Cc2nc4ccc(C(=O)O)cc4n2C[C@@H]2CCO2)C3)cc1` [Compound I-086]: the maximal effect (Emax) was found to be 106% and a half-maximal effect (EC50) was put at 17.9 nM.

As for `O=C(O)c1ccc2nc(CN3CCc4cc(C(F)(F)F)c(OCc5ccccc5-c5ccccc5)cc4C3)n(C[C@@H]3CCO3)c2c1` [Compound I-088], the Emax worked out at 147% and the EC50 came out at 7.81 nM.

Take `O=C(O)c1ccc2nc(CN3CCc4cc(C(F)(F)F)c(OCc5ccccc5Cl)cc4C3)n(C[C@@H]3CCO3)c2c1` [Compound I-090]: the maximal effect (Emax) is 106% and the half-maximal effective concentration (EC50) came to 6.6 nM.

As for `O=C(O)c1ccc2nc(CN3CCc4cc(C(F)(F)F)c(OCc5ccc(F)c(F)c5)cc4C3)n(C[C@@H]3CCO3)c2c1` [Compound I-093], the Emax was found to be 111% and the 50% effective concentration (EC50) stood at 16.6 nM.

In the case of `O=C(O)c1ccc2nc(CN3CCc4cc(C(F)(F)F)c(OCc5ccc(F)c(F)c5F)cc4C3)n(C[C@@H]3CCO3)c2c1` [Compound I-094], the maximal effect (Emax) was 102% and the EC50 worked out at 28.5 nM.

On to `O=C(O)c1ccc2nc(CN3CCc4cc(C(F)(F)F)c(OCc5cc(F)c(F)cc5F)cc4C3)n(C[C@@H]3CCO3)c2c1` [Compound I-095], for which the maximal effect (Emax) was 112% and a half-maximal response (EC50) required 10.5 nM.

On to `O=C(O)c1ccc2nc(CN3CCc4cc(C(F)(F)F)c(OCc5ccc(F)cc5Cl)cc4C3)n(C[C@@H]3CCO3)c2c1` [Compound I-097], for which the Emax was found to be 105% and the response was half-maximal at 2.42 nM (EC50).

Regarding `O=C(O)c1ccc2nc(CN3CCc4cc(C(F)(F)F)c(OCc5ccc(Cl)c(F)c5)cc4C3)n(C[C@@H]3CCO3)c2c1` [Compound I-098], the Emax stood at 120% and the midpoint of the response, the EC50, lay at 10.9 nM.

Regarding `O=C(O)c1ccc2nc(CN3CCc4cc(C(F)(F)F)c(OCc5ccc(Cl)cc5Cl)cc4C3)n(C[C@@H]3CCO3)c2c1` [Compound I-099], the Emax is 114% and the response was half-maximal at 1.43 nM (EC50).
